Series [1] in a line: Elution/release of anaesthetic from DePuy bone cement discs (Example 2). In kind it is physicochemical. Particulars: for anaesthetic released over 72 hours, percentage of amount incorporated / anaesthetic released after 72 h, percentage of amount incorporated: discs in 0.2% saline, 37° C.; for effect of particle size on release profile: crystals 75 to 150 um, 150 to 250 um, >250 um, 72 hours. The source says: Crystalline lidocaine base from three manufacturers (Sigma, Spectrum, and Wyckoff) was used in these studies. It was observed that the relative proportions of crystals of different size varied substantially among the three brands. Thus, an initial study compared the effect of crystal size on elution and release characteristics using Spectrum lidocaine base. Crystals were sorted using a series of molecular sieves into three groups (small, 75 to 150 um; medium, 150 to 250 um; and large, >250 um) and 2.0 g samples from each group were incorporated into bone cement and tested, as indicated below.
All studies adhered to the following procedure: Forty grams of bone cement (DePuy CMW3 unless otherwise specified) were mixed with 2.0, 0.5, 0.05, or 0.005 g of liquid or crystalline anaesthetic (lidocaine: Sigma, Spectrum, Wyckoff; prilocaine: Colour Your Enzyme, Queen's University, Kingston, Ontario, Canada). The polymerization initiated mixtures were formed into discs 50 mm×1 mm and allowed to cure. The cured discs were then placed in a solution (100 ml) containing 0.2% saline, and kept at 37° C. in a shaking water bath. 1 ml aliquots were taken at 0, 1, 2, 3, 4, 6, 24, 48 and 72 hours and to each was added 1 μg/ml bupivacaine as an internal standard. 50 μl aliquots were subjected to HPLC using a Beckman reverse phase column having a mobile phase of 40 mM ammonium phosphate:acetonitrile (60:40) and a flow rate of 1 ml/min, followed by electrochemical detection, to determine the amount of anaesthetic in each sample.
The percentage of anaesthetic released was calculated from the mass of the bone cement/anaesthetic mixture: anaesthetic (e.g., 0.05 g)+bone cement powder (40 g)+bone cement liquid (17.9 g)=57.95 g. The mean mass of bone cement discs in an individual experiment was, for example, 3.75 g, which corresponds to 15.45 discs per mixture. For elution of, for example, 1000 ug after 72 hours, 1000 ug×15.45 discs=0.015 g anaesthetic released. Since 0.05 g anaesthetic was used, 30.9% was released.

The conditions of series [2]: eluted from Howmedica bone cement; knee surgery of Example 3.
Series [3] in a line: Elution of lidocaine from bone cement discs (Example 1). Particulars: Zimmer or DePuy cement, 0.2% saline, 37° C. In kind it is physicochemical. The procedure: Forty grams of bone cement powder from each of three manufacturers: Howmedica (Simplex), Zimmer (Osteobond) and DePuy (CMW3), were mixed with 0.5, 1.0 and 2.0 g of gas-sterilized crystalline lidocaine base (Xylocaine, Astra Pharmaceuticals). The polymerization initiated mixtures were formed into discs 50 mm×1 mm and allowed to harden. The hardened discs were then placed in a stirred solution (100 ml) containing 0.2% saline at 37° C. 100 μl aliquots were taken at 1, 2, 3, 4, 6, 24, 48 and 72 hours and subjected to HPLC with electrochemical detection analysis to determine the lidocaine level in each sample.

For series [4] the following is noted: lidocaine added to CMW3 vs CMW3.
Description: Lidocaine (Xylocaine, Astra Pharmaceuticals) was combined with DePuy CMW3 bone cement as described in Example 1, and mechanical properties including dough time, setting time, exotherm, compressive strength, flexural strength, flexural modulus, and impact strength were analyzed.
Setting [5] is: 0.05 g anaesthetic per 40 g DePuy CMW3 bone cement, HCl.
The mark [6] stands for this setting: 0.5, 1.0, 2.0 g per 40 g Howmedica.
Setting [7] is: 2.0 g anaesthetic per 40 g DePuy CMW Endurance bone cement.

Structures can show the parent of a compound that is named as a salt. A value given as a limit tells only on which side of the number the result lay.

Turning to `CCN(CC)CC(=O)Nc1c(C)cccc1C` [crystalline lidocaine HCl, lidocaine HCl], the “anaesthetic released over 72 hours, percentage of amount incorporated” value in series [1] (setting [5]) is recorded as “about 25%”; in series [1] (0.05 g anaesthetic per 40 g DePuy CMW3 bone cement, listed as lidocaine HCl, HCl), “about 25%”; in series [1] (0.5 g anaesthetic per 40 g DePuy CMW3 bone cement) it was “about 33%”. For the same compound, the “anaesthetic released after 72 h, percentage of amount incorporated” value in series [1] (0.5 g anaesthetic per 40 g DePuy CMW Endurance bone cement) is reported as 23%. The “effect of particle size on release profile” value in series [1] (DePuy CMW3, HCl) is “Smaller particles eluted faster”.

For `CCN(CC)CC(=O)Nc1c(C)cccc1C` [crystalline lidocaine base, lidocaine], in series [2], the “persistence of analgesic effect” value is “at least 24 hours” and the “time from application of bone cement to analgesic effect” value was at most 6 h. For the same compound, in series [3] (setting [6]), the “amount eluted in relation to amount in the mixture” value is reported as “proportional to the amount of lidocaine in the mixture”, the “period of maximum rate of elution” value is “first 24 hours” and the “time of peak dose in elution curve” value is about 6 h. For the same compound, the “period of sustained release” value in series [3] (test period, Howmedica) came to 72 h. The “anaesthetic released over 72 hours, percentage of amount incorporated” value in series [1] (2.0 g anaesthetic per 40 g DePuy CMW3 bone cement) was “about 1%”. The “anaesthetic released after 72 h, percentage of amount incorporated” value in series [1] (setting [7]) was “about 0.3%”. Moreover, the “anaesthetic released over the 72 hour period, percentage of amount incorporated” value in series [1] (2.0 g sieved crystals, all size groups (75 to 150 um, 150 to 250 um, >250 um), DePuy CMW3) is “about 1%”. Also, the “effect of particle size on release profile” value in series [1] (DePuy CMW3) is “no effect of particle size”. In series [4], the “effect on compressive strength, flexural strength or flexural modulus” value is “little effect”; the “improvement of impact strength” value is “about 10%”; the “increase of cement setting time” value is reported as “about 40%”; the “increase of doughing time, factor” value is 3.

In the case of `CCCNC(C)C(=O)Nc1ccccc1C` (centres unmarked) [crystalline prilocaine base, prilocaine], in series [1] (setting [7]), the “anaesthetic released after 72 h, percentage of amount incorporated” value is listed as “about 0.4%”.

Turning to `CCN(CC)CC(=O)Nc1c(C)cccc1C` [liquid lidocaine HCl, lidocaine HCl], the “anaesthetic released over 72 hours, percentage of amount incorporated” value in series [1] (setting [5]) turned out to be 0.3%.

`CCCNC(C)C(=O)Nc1ccccc1C` (centres unmarked) [liquid prilocaine base, prilocaine]: the “anaesthetic released after 72 h, percentage of amount incorporated” value in series [1] (setting [7]) is reported as “about 0.3%”. Further, the “initial release of anaesthetic” value in series [1] (2.0 g in DePuy CMW3, compared with crystalline prilocaine base and both forms of lidocaine base (FIG. 4)) was “greatest”.

Source of the values: patent US6713527B2, “Anaesthetic bone cement” (Queen's University at Kingston, priority 1997, dated 2004).
